Assay results reported in patent publication US20200246316A1, “METHODS OF TREATING POST-SURGICAL PAIN WITH A THIAZOLINE ANTI-HYPERALGESIC AGENT” (CERSCI THERAPEUTICS, INC., priority 2019, published 2020).
“Also recorded” adds a separate entry of the source. Counter-ions that a name gives are not always drawn. Like-named read-outs stand apart in the source and are kept apart here.

Columns and labels:
OAT3 = biological target: T1, OAT3 (Homo sapiens, UniProt Q8TCC7); test: Inhibition of uptake (SLC) transporters; type: in vitro ADME
T1 construct: expressed in transfected cells; host or cells: HEK293 cells

OATP1B3 = biological target: T2, OATP1B3 (Homo sapiens, UniProt Q9NPD5); test: Inhibition of uptake (SLC) transporters; type: in vitro ADME
T2 construct: expressed in transfected cells; host or cells: HEK293 cells

[1] = Cytotoxicity by lactate dehydrogenase (LDH) release; type: cell-based; details: human, HEK293 cells; read-out: percent cytotoxicity (LDH release)
[2] = Dog pharmacokinetics after single PO (10 mg/kg) and IV (3 mg/kg) dose; type: in vivo; details: for bioavailability: 10 mg/kg PO vs 3 mg/kg IV
Description: The objective of the first single dose non-GLP study in dogs was to determine the pharmacokinetics and bioavailability of Compound 1 after a single oral (gavage) or single intravenous (IV) dose in dogs. The test article formulation was administered to three male dogs orally via gavage at a dose level of 10 mg/kg (dosing volume of 2 mL/kg body weight). Following a wash-out period of a minimum of three days, the same three dogs were administered the test article formulation via an IV bolus push over approximately 1-2 minutes at a dose level of 3 mg/kg (dosing volume of 0.5 mL/kg). The vehicle for oral gavage dosing was 0.5% HPMC; the vehicle for IV injection was sterile phosphate buffered saline (PBS; pH 7.4). […] Animals were returned to quarantine after the last blood collection.
After IV administration at 3 mg/kg, the test article was quantifiable up to the 4-hour time point for all animals and tmax was about 5 minutes. Since the test article was not quantifiable at the 6-hour and subsequent time points for IV administration, […] and bioavailability could not be calculated.

[3] = Cytotoxicity by lactate dehydrogenase (LDH) release; type: cell-based; details: human, Caco-2 cells; read-out: percent cytotoxicity (LDH release)
[4] = Dog single oral dose MTD study; type: in vivo; details: for concentration at 0.5 h / concentration at 1 h / concentration at 2 h: dog, plasma, N = 2, read-out: Average Compound 1 Concentration in dog plasma
Description: The objective of a third single dose study in dogs was to determine the maximum tolerated dose (MTD) of Compound 1 following a single oral (gavage) dose in male and female dogs. Using a pyramiding dose schedule, dose levels of 250, 350 and 500 mg/kg were administered to 2 dogs/sex (after a washout period of at least three days, the same animals were dosed with the next dose level). The dose volume was 10 mL/kg body weight. The vehicle was 0.5% aqueous HPMC.

pKa values = type: physicochemical
[5] = test system: established incision-induced mechanical hyperalgesia; test: Brennan incisional pain model, treatment paradigm; type: in vivo, rat
From the text: Two incisional pain models were used to assess Compound 1 effects on hyperalgesia. The first model is referred to as the Brennan model in which, under anesthesia, a 1 cm longitudinal incision to the skin and underlying fascia of a rat hindpaw is made. The second is a variation but is a more invasive procedure in which the skin and muscle are spread apart using forceps which creates a longer-lasting hypersensitivity.
Using the Brennan protocol and a treatment paradigm in rat, Compound 1 (10 and 30 mg/kg PO), morphine (3 mg/kg SC) or vehicle were administered daily at 24 h post-incision, and again at 48 and 72 h post-incision. Mechanical thresholds were obtained at 1 h and 2 h post-dose in all cohorts on all days.

[6] = female, 250 mg/kg PO (Dose 1; Day 1), F
[7] = female, 350 mg/kg PO (Dose 3; Day 9), F
[8] = female, 500 mg/kg PO (Dose 2; Day 4), F
[9] = male, 250 mg/kg PO (Dose 1; Day 1), M
[10] = male, 350 mg/kg PO (Dose 3; Day 9), M
[11] = male, 500 mg/kg PO (Dose 2; Day 4), M

T2 sequence (Q9NPD5 whole entry): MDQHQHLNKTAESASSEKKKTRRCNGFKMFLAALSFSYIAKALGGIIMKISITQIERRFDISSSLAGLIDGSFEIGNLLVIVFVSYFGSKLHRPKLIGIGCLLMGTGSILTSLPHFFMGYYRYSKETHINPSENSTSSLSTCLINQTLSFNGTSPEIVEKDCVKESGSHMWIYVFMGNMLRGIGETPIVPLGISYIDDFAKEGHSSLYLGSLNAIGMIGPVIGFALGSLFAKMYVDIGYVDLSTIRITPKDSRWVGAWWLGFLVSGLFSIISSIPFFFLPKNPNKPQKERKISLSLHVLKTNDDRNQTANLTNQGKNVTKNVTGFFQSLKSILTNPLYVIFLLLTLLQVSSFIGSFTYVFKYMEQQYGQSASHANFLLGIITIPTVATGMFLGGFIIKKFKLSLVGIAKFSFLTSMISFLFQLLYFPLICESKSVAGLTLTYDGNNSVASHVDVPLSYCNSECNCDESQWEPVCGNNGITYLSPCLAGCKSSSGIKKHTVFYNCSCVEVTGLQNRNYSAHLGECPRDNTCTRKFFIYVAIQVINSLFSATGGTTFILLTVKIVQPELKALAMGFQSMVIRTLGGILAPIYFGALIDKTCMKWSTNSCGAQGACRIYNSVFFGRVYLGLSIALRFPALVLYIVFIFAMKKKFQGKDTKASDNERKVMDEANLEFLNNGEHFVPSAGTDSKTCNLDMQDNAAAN
T1 sequence (Q8TCC7 whole entry): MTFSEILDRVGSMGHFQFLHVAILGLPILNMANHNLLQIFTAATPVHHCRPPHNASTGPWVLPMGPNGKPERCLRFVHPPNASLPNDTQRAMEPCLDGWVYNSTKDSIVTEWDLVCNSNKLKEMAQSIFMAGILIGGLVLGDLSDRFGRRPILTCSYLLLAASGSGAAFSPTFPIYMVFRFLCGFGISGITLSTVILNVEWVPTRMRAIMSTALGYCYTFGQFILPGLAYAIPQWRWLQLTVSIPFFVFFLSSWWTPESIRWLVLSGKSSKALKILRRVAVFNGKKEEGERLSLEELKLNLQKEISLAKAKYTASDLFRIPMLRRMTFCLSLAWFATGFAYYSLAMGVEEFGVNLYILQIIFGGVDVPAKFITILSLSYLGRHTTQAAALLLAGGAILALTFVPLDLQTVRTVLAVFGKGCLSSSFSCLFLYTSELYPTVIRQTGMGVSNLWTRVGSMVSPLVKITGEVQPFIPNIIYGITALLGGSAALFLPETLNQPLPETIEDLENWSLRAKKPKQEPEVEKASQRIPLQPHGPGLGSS

CC1(C)SC(Nc2ccccc2O)=N[C@@H]1C(=O)O [Compound 1, (R)-2-(2-hydroxyphenylamino)-5,5-dimethyl-4,5-dihydrothiazole-4-carboxylic acid mono-hydrochloride]
IC50 (OAT3; HEK293 cells, probe [3H]-estrone-3-sulfate (0.05 μM), 0.3-600 μM tested): 174 µM
transporter inhibition (OAT3; OAT3): weakly inhibits
IC50 (OATP1B3; HEK293 cells, probe [3H]-estradiol-17β-glucuronide (0.05 μM), 0.3-600 μM tested): > 600 µM
transporter inhibition (OATP1B3; OATP1B3): does not inhibit
cytotoxicity [1]: < 25%
median t1-2 ([2]; 10 mg/kg PO): 1.4 h
epimerization (chiral column) ([2]; dog plasma): did not provide any evidence of epimerization
bioavailability ([2]; male, dog, plasma, oral, 10 mg/kg, read-out: mean oral bioavailability): 72%
Tmax ([2]; male, dog, plasma, 3 mg/kg IV): ~5 min
Cmax ([2]; male, dog, plasma, 10 mg/kg PO): 12 µg/mL
Tmax ([2]; male, dog, plasma, 10 mg/kg PO): ~60 min
bioavailability ([2]; male, dog, plasma, read-out: oral bioavailability range): 56 to 91%
cytotoxicity [3]: < 25%
concentration at 0.5 h [4, 6]: 28 µg/mL
concentration at 1 h [4, 6]: 54 µg/mL
concentration at 2 h [4, 6]: 46 µg/mL
concentration at 0.5 h [4, 7]: 67 µg/mL
concentration at 1 h [4, 7]: 154 µg/mL
concentration at 2 h [4, 7]: 119 µg/mL
concentration at 0.5 h [4, 8]: 87 µg/mL
concentration at 1 h [4, 8]: 136 µg/mL
concentration at 2 h [4, 8]: 124 µg/mL
concentration at 0.5 h [4, 9]: 71 µg/mL
concentration at 1 h [4, 9]: 110 µg/mL
concentration at 2 h [4, 9]: 91 µg/mL
concentration at 0.5 h [4, 10]: 134 µg/mL
concentration at 1 h [4, 10]: 220 µg/mL
concentration at 2 h [4, 10]: 153 µg/mL
concentration at 0.5 h [4, 11]: 111 µg/mL
concentration at 1 h [4, 11]: 191 µg/mL
concentration at 2 h [4, 11]: 193 µg/mL
emesis incidence ([4]; single dose 500 mg/kg): three of the four dosed animals
tolerability ([4]; single oral (gavage) dose 500 mg/kg): not tolerated
pKa (pKa values; Acidic (first)): 2.29 ± 0.02
pKa (pKa values; Acidic (second)): 10.24 ± 0.03
pKa (pKa values; Basic): 6.97 ± 0.01
effect on established mechanical hyperalgesia (overall) ([5]; Compound 1 10 and 30 mg/kg PO daily, morphine 3 mg/kg SC, FIG. 12, mono-hydrochloride): prevented/reversed hyperalgesia completely; also recorded: reversed mechanical hyperalgesia
reversal of hyperalgesia ([5]; Day 1, 2-h time point, low-dose (10 mg/kg PO)): partial reversal
mechanical threshold ([5]; Day 1, 1 h post-dose, high-dose (30 mg/kg PO)): 26 g
mechanical threshold ([5]; Day 1, 2 h post-dose, high-dose (30 mg/kg PO)): 27 g
reversal of hyperalgesia ([5]; Day 2, 1 h and 2 h post-dosing, both 10 and 30 mg/kg PO cohorts): full reversal of hyperalgesia
mechanical threshold ([5]; Day 2 prior to dosing, high-dose (30 mg/kg PO)): 29 g
mechanical threshold ([5]; Day 2 prior to dosing, low-dose (10 mg/kg PO)): 26 g
hyperalgesia ([5]; Day 3 prior to dosing): did not show hyperalgesia
